We go through one molecule from patent US20210380547A1, “UREA DERIVATIVES FOR TREATING AND/OR PREVENTING CANCER” (CENTRE NATIONAL DE LA RECHERCHE SCIENTIFIQUE, priority 2018, published 2021).

Where only a bound is given, the exact number is not on record here.

One series has as its system OCI-AML2. The experiment in a line: XTT cell viability assay, OCI-AML2. The class given is cell-based, human. The following applies: Homo sapiens, OCI-AML2; XTT assay (48 h); standard deviation of 10%; read-out: EC50 (μM) AML OCI-AML2. The protocol: (§1) Fifty microliters of sodium 3′-[1-phenylaminocarbonyl)-3,4-tetrazolium]-bis(4-methoxy-6-nitro) benzene sulfonic acid hydrate (XTT) reagent was added to each well. The assay is based on the cleavage of the yellow tetrazolium salt XTT to form an orange formazan dye by metabolically active cells. The absorbance of the formazan product, reflecting cell viability, was measured at 490 nm. Each assay was performed in quadruplicate.
(§2) Compounds #1-#14 have been assayed as potential anti-proliferative agents against a panel of human breast head and neck, and kidney tumor cells and hematological malignancies, selected on the basis of their aggressiveness (e.g. incurable triple-negative breast cancer cells: MDA-MB-231; kidney ccRCC cells: RCC4, A498 and 786-O and 786R; head and neck cancer cells: CAL33, CAL33RR, CAL27, and CAL27RR; acute myeloid cell lines: OCI-AML2, OCI-AML3, MolM13, and MolM14; myelodysplastic cell line: SM1; and chronic myeloid cell line: CML). All these cell lines share as common denominator the expression of CXCR1 and CXCR2. The EC50 values have been measured by a XTT colorimetric assay, and compared to those of SB-225002, used as a reference; the results are listed in Table 1.

A further series concerns the target T1, CXCR2 (Homo sapiens, UniProt P25025).
T1 construct: endogenous in cells; host or cells: HuVEC (healthy endothelial cells)
The experiment in a line: CXCR2 membrane level by flow cytometry after CXCL8 stimulation in HuVEC. The class given is cell-based. The following applies: 2.5 μM, CXCL8 25 ng/ml 1 h. On the procedure:
A: HuVEC were stimulated with 25 ng/ml CXCL8 during 1 h. Membrane-associated CXCR2 protein levels were quantified by flow cytometry;
CXCR2 measurement: After stimulation, cells were washed with PBS and were stained with the CXCR2-PE antibody (Miltenyi) for 30 min at room temperature. Fluorescence was measured by using the FL2 (PE) channels of a fluorescence-activated cell sorter apparatus (Calibur cytometer).
Since CXCR2 is internalized in endothelial cells when activated by CXCL-8, the effect of compound #1 has been investigated on CXCR2 recycling on HuVEC cells.

Another series concerns SKM1. The experiment in a line: XTT cell viability assay, SKM1. The class given is cell-based, human. The following applies: Homo sapiens, SKM-1; XTT assay (48 h); standard deviation of 10%; read-out: EC50 (μM) MDS SKM1. The protocol:
as §1, §2

A short description of series [1]: Pharmacokinetics after oral gavage in mice. The class given is in vivo. The following applies: oral gavage 50 mg/Kg. On the procedure:
Compound #1 was then formulated at 7.6 mg/mL, and administrated by oral gavage at 50 mg/Kg (n=12 mice) and pharmacokinetic parameters have been measured (Table 2).

Another series concerns DAOY and HD-MB03 cells. In words: Clonogenicity, medulloblastoma cells. The class given is cell-based. The note with it: 1 μM, Day+7 (DAOY), Day+11 (HD-MB03). The protocol: FIG. 8: Inhibition of proliferation of medulloblastoma cells by compound #1. Clonogenicity tests; […].
150 DAOY cells and 300 HD-MB03 cells were seeded in a 6-well plate with or without treatment (1 μM of compound #1 or DMSO as control “CONT”). At Day+7 (DAOY) and Day+11 (HD-MB03), cells were mixed with absolute ethanol for 20 minutes, washed with PBS and colored with Giemsa 50% for 30 minutes. After washing, the boxes were scanned and the number of clones was quantified using ImageJ® software. Each assay was performed in duplicate.

T1 sequence (P25025 whole entry): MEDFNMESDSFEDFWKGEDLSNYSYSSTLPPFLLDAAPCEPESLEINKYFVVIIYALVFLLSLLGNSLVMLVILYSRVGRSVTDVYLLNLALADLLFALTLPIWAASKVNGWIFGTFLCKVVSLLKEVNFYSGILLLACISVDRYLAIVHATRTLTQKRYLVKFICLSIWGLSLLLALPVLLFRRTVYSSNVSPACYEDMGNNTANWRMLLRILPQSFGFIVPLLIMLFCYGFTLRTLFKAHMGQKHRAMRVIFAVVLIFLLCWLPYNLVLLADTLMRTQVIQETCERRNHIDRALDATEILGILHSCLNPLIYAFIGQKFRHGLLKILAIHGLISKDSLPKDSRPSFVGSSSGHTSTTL

Consider `O=C(Nc1cccc(Cl)c1)Nc1nc2ccc([N+](=O)[O-])cc2s1` [Compound #1, 1-(3-chlorophenyl)-3-(6-nitrobenzo[d]thiazol-2-yl)urea], for which the EC50 in the series on OCI-AML2 and with SKM1 was 5 µM each time. For the same molecule, the “CXCL-8-dependent internalization of CXCR2” value at CXCR2 is “prevents the CXCL-8-dependent internalization of CXCR2”. Besides, the half-life in series [1] (mouse, in vivo) was over 190 min. Also, in series [1] (mouse, in vivo, po, 50 mg/kg, read-out: AUC lastPO (converted)), the AUC was about 1420 ng·h/mL. For the same molecule, the Tmax in series [1] is listed as 30 min. Besides, the “AUC lastPO” value in series [1] (50 mg/kg) was determined as 84965 ± 9367 ng·min/mL. Moreover, the “formation of DAOY and HD-MB03 clones” value in the series with DAOY and HD-MB03 cells is “significatively reduces the formation”.
